Data on 12 compounds can be found in patent US8987312B2, “Alpha-keto heterocycles as FAAH inhibitors” (The Scripps Research Institute, priority 2008, dated 2015).

Like-named read-outs stand apart in the source and are kept apart here.

The target of experiment [1] is T1, KIAA1363 (Mus musculus, UniProt Q8BLF1).
T1 construct: with FP-Rh in brain and heart membrane proteome; from tissue; host or cells: brain and heart membrane proteome
T1 sequence (Q8BLF1 1-408): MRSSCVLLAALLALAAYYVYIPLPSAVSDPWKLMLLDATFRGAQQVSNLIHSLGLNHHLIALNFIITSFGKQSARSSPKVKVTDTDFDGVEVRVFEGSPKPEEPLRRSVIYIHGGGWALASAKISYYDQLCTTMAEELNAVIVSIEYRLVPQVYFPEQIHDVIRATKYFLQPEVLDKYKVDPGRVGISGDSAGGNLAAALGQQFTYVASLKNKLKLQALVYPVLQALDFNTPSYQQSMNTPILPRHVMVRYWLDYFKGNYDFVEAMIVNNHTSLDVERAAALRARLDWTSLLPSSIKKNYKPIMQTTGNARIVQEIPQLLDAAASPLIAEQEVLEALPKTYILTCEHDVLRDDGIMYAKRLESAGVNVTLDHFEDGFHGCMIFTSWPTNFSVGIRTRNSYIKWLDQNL
Briefly: Activity based protein profiling (proteome-wide selectivity screening, FP-Rh), KIAA1363. Type of experiment: biochemical. Conditions: Table 4; for IC50: activity based protein profiling; for KIAA1363 selectivity (value in parentheses): ratio KIAA1363 IC50 / FAAH IC50 (fold selectivity for FAAH). From the text: (§1) Enzyme targets such as FAAH, KIAA1363, and TGH are labeled at the left margin.

In experiment [2] the target is T2, purified recombinant rat FAAH (Rattus norvegicus, UniProt P97612).
T2 construct: The truncated rat FAAH (rFAAH) was expressed in E. coli and purified as described; made in house; host or cells: Escherichia coli
T2 sequence (P97612 30-579 limits assumed): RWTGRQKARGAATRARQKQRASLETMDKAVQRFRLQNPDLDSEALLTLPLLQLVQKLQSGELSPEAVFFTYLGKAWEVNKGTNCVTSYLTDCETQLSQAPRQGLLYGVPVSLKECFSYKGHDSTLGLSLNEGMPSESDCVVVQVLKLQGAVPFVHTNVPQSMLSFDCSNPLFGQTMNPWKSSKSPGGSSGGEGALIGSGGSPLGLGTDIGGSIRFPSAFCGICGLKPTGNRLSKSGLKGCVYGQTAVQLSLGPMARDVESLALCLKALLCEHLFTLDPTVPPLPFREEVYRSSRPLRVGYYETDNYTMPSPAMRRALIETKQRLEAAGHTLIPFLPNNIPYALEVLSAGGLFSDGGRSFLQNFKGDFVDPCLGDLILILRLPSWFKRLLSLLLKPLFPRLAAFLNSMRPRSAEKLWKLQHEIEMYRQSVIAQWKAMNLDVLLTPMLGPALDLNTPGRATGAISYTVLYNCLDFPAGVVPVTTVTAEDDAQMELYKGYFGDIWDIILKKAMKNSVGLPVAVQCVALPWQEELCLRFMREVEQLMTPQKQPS
The experiment is described as follows: FAAH inhibition enzyme assay (14C-oleamide hydrolysis, Dixon plot), rat enzyme. The experiment is classed as biochemical. An excerpt: (§2) The purified recombinant rFAAH was used in the inhibition assays unless otherwise indicated.
(§3) The ^14C-labeled oleamide (substrate) and oleic acid (product) were extracted with EtOAc and analyzed by TLC.

Experiment [3] concerns the target T3, triacylglycerol hydrolase (TGH) (Mus musculus, UniProt Q8VCT4).
T3 construct: with FP-Rh in brain and heart membrane proteome; from tissue; host or cells: brain and heart membrane proteome
T3 sequence (Q8VCT4 19-565): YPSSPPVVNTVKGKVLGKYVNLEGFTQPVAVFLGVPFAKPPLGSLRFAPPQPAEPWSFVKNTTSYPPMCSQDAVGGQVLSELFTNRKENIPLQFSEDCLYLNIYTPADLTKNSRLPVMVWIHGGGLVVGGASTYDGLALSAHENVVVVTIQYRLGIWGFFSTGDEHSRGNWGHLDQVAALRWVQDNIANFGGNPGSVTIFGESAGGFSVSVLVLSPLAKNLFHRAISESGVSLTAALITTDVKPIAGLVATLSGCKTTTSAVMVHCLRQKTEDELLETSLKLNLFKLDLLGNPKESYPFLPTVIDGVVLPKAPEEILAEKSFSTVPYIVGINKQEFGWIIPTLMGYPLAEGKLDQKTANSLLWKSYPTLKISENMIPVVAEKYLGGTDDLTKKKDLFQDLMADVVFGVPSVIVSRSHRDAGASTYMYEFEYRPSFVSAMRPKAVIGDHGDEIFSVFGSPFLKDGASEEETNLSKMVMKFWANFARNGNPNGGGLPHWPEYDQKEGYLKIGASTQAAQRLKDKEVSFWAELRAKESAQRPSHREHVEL
The experiment is described as follows: Activity based protein profiling (proteome-wide selectivity screening, FP-Rh), TGH. The experiment is classed as biochemical. The note with it: Table 4; for IC50: activity based protein profiling; for TGH selectivity (value in parentheses): ratio TGH IC50 / FAAH IC50 (fold selectivity for FAAH).
Excerpt: as §1

Experiment [4] has as its target T4, FAAH (Mus musculus, UniProt O08914).
T4 construct: with FP-Rh in brain and heart membrane proteome; from tissue; host or cells: brain and heart membrane proteome
T4 sequence (O08914 1-579): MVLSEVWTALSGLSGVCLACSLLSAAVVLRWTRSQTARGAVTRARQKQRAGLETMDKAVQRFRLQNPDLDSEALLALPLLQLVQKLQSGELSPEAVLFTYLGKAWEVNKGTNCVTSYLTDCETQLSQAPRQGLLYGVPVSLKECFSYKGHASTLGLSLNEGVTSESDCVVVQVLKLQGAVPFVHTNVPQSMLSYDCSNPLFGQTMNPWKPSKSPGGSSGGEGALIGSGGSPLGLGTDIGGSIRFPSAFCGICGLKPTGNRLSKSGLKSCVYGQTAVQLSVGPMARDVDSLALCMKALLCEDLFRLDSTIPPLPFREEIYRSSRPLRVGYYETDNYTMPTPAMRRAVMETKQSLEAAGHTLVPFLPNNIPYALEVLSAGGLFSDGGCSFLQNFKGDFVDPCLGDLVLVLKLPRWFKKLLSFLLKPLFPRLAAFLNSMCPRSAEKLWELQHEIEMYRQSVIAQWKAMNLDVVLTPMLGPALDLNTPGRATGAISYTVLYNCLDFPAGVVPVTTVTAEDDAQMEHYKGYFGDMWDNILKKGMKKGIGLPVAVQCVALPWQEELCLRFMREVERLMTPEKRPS
Briefly: Activity based protein profiling (proteome-wide selectivity screening, FP-Rh), FAAH. The experiment is classed as biochemical. Conditions: Table 4.
Excerpt: as §1

The target in experiment [5] is T5, recombinant human fatty acid amide hydrolase (Homo sapiens, UniProt O00519).
T5 construct: The full-length human FAAH (hFAAH) was expressed in COS-7 cells as described; expressed in transfected cells; host or cells: COS-7
T5 sequence (O00519 1-579): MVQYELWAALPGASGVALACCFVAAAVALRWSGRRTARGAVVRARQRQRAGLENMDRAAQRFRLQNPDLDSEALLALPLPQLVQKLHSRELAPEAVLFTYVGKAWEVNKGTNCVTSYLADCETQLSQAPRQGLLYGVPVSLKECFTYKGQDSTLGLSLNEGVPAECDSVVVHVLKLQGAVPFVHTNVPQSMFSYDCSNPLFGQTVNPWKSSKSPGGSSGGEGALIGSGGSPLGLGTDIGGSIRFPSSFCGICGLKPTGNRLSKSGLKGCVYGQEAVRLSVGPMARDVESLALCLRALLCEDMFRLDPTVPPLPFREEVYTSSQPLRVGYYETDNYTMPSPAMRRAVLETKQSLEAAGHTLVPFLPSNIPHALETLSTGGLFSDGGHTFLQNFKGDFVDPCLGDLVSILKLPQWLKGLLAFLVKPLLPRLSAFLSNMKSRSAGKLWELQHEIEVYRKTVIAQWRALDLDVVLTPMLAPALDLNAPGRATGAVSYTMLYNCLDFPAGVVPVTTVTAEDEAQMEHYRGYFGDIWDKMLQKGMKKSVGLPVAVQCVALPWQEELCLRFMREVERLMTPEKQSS
Briefly: FAAH inhibition enzyme assay, human enzyme (COS-7 lysate). Type of experiment: biochemical. The note with it: Table 3.
Excerpt: as §2, §3

The conditions of experiment [6]: CREAE mice; cited from earlier work.
For experiment [7] the following is noted: rats; cited from earlier work.
The conditions of experiment [8]: rats; cited from earlier work. The source holds these as a separate data set.
The conditions of experiment [9]: rat; cited from earlier work.
Experiment [10] has as its system FAAH. The note with it: cited from earlier work.
For experiment [11] the following is noted: rats; cited from earlier work. The source holds these as a separate data set.
For experiment [12] the following is noted: rats; cited from earlier work. This is another data set of the same source.
[13] abbreviates: Table 2, rat FAAH, pH 9 assay conditions, read-out: Ki.
[14] abbreviates: Table 3, rat FAAH, read-out: Ki, μM (rat).

What is called IC50 is the concentration that inhibits the measured activity by half. A word on the Ki: it is the dissociation constant of the complex between target and ligand, obtained from inhibition or displacement. For `O=C(O)c1cccc(-c2cnc(C(=O)CCCCCCc3ccccc3)o2)n1` [7g], the half-maximal inhibitory concentration (IC50) was over 100 µM in experiment [1], over 100000 nM in experiment [3] and 100 nM in experiment [4]. In addition, the “KIAA1363 selectivity (value in parentheses)” value (“KIAA1363 selectivity” for short) in experiment [1] was over 1000. Moreover, the Ki in experiment [2] (pH=7.4 (physiological pH), read-out: Ki) was 0.0103 µM; in experiment [2] (pH=8, read-out: Ki), 0.0145 µM; in experiment [5], 0.026 µM. Moreover, the “TGH selectivity (value in parentheses)” value in experiment [3] is over 1000.
In [1], `O=C(CCCCCCc1ccccc1)c1nnc(-c2ccccn2)o1` [8b, 7-Phenyl-1-(5-(pyridin-2-yl)-1,3,4-oxadiazol-2-yl)-heptan-1-one] returned an IC50 of 90 µM. The “KIAA1363 selectivity” value in [1] was 90000. Besides, the inhibition constant (Ki) in experiment [2] (setting [13]) was found to be 0.00029 µM; in [2] (setting [14]), 0.00029 µM; in [2] (Table 4, read-out: FAAH Ki), 0.00029 µM; in [5] it was 0.0012 µM. Also, the “TGH selectivity (value in parentheses)” value in experiment [3] stood at 140.
Consider `O=C(O)c1cccc(-c2nnc(C(=O)CCCCCCc3ccccc3)o2)n1` [8g], for which the values for the IC50 in [1] and in [3] were over 100 µM and 40000 nM, respectively. For the same compound, in experiment [5], the Ki is 0.037 µM.
On to `O=C(CCCCCCc1ccccc1)c1nc(-c2ccccn2)no1` [9b, 7-Phenyl-1-(3-(pyridin-2-yl)-1,2,4-oxadiazol-5-yl)-heptan-1-one], for which the IC50 in [1] was determined as 30 µM; in experiment [3], 30 nM; in experiment [4], 3 nM. Moreover, the “KIAA1363 selectivity” value in [1] is on record as 10000. In addition, the Ki in experiment [2] (setting [13]) is 0.00034 µM; in [2] (setting [14]), 0.00034 µM; in experiment [2] (Table 4, read-out: FAAH Ki), 0.00034 µM; in [5], 0.00092 µM. Also, the “TGH selectivity (value in parentheses)” value in experiment [3] is reported as 10.
Take `O=C(CCCCCCc1ccccc1)c1noc(-c2ccccn2)n1` [10b, 7-Phenyl-1-(5-(pyridin-2-yl)-1,2,4-oxadiazol-3-yl)-heptan-1-one]: the IC50 is over 100 µM in [1], 400 nM in experiment [3] and 7 nM in experiment [4]. In addition, the “KIAA1363 selectivity” value in experiment [1] is listed as over 14000. Besides, the Ki was determined as 0.0011 µM in [2] (setting [13]); 0.0011 µM in experiment [2] (setting [14]); 0.0011 µM in experiment [2] (Table 4, read-out: FAAH Ki); 0.016 µM in experiment [5]. Besides, the “TGH selectivity (value in parentheses)” value in [3] turned out to be 60.
Consider `O=C(O)c1cccc(-c2nc(C(=O)CCCCCCc3ccccc3)no2)n1` [10g, 6-(3-(7-Phenylheptanoyl)-1,2,4-oxadiazol-5-yl)-picolinic Acid], for which the IC50 in experiment [1] is over 100 µM; in experiment [3], over 100000 nM; in experiment [4] it was 70 nM. In [1], the “KIAA1363 selectivity” value was over 1400. The Ki in experiment [2] (setting [13]) was 0.053 µM; in experiment [2] (setting [14]), 0.053 µM; in [2] (Table 4, read-out: FAAH Ki) it was 0.053 µM; in experiment [5] it was 0.11 µM. Moreover, the “TGH selectivity (value in parentheses)” value in experiment [3] is listed as over 1400.
Regarding `O=C(CCCCCCc1ccccc1)c1nnc(-c2ccccn2)s1` [12b, 7-Phenyl-1-(5-(pyridin-2-yl)-1,3,4-thiadiazol-2-yl)-heptan-1-one], the figures for the 50% inhibitory concentration (IC50) in experiment [1], in [3] and in [4] were over 100 µM, 4500 nM and 30 nM, respectively. The “KIAA1363 selectivity” value in experiment [1] is on record as over 3300. For the same compound, the Ki in [2] (setting [13]) turned out to be 0.0008 µM; in experiment [2] (setting [14]) it was 0.0008 µM; in experiment [2] (Table 4, read-out: FAAH Ki), 0.0008 µM; in experiment [5] it was 0.003 µM. Also, in experiment [3], the “TGH selectivity (value in parentheses)” value is reported as 150.
Regarding `O=C(CCCCCCc1ccccc1)c1nnn(-c2ccccn2)n1` [15b, 7-Phenyl-1-(2-(pyridin-2-yl)-2H-tetrazol-5-yl)-heptan-1-one], the IC50 is over 100 µM in experiment [1] and 120 nM in experiment [3]. In addition, the Ki in experiment [5] is 0.0055 µM.
As for `CCCCCCCCCCCCCCCCS(=O)(=O)F` [AM374], in [6], the spasticity entry was “significantly reduce spasticity”.
Consider `Cc1nc(-c2ccccc2)c(-c2ccccc2)n1CCCCCCNC(=O)Oc1ccccc1F` [BMS-1], for which the analgesic effect result in [7] and in [8] was “analgesic effect” each time.
`O=C(CCCCCCc1ccccc1)c1ncc(-c2ccccn2)o1` [OL-135]: the “analgesic efficacy / activity, hot plate” value in experiment [9] is reported as “analgesic activity”. In experiment [10], the “FAAH inhibition (in words)” value is listed as “potent inhibitor”. Moreover, the “analgesic activity, tail emersion” value in experiment [11] is “analgesic activity”.
Regarding `NC(=O)c1cccc(-c2cccc(OC(=O)NC3CCCCC3)c2)c1` [URB-597], the “analgesic efficacy / activity, hot plate” value in [9] is given as “analgesic efficacy”. In experiment [12], the “efficacy in model of anxiety” value was “efficacy”.
